Biological target: T1, CXCR4 (Homo sapiens, UniProt P61073)
T1 construct: a human T cell strain in which CXCR4 is known to be expressed; endogenous in cells; host or cells: CEM cells (human T cell strain)
Test: Study for inhibition of binding human SDF-1 to CEM cells
Settings: human T cell strain CEM cells, 125I-SDF-1, 4° C. for 60 minutes
Text: As mentioned above, a more direct procedure is a screening a compound that prevents for HIV from binding to CXCR4, which is a receptor on CD4+ cell, on an assay system using HIV. However, using HIV for a large-scale screening is not practical due to its difficult handling. On the other hand, both of T cell-directed (X4) HIV-1 and SDF-1 bind to CXCR4 and therefore CXCR4 binding sites at both of HIV-side and SDF-1-side as well as SDF-1- and HIV-binding sites at the CXCR4 side may presumably have any common characteristics. […]
To human T cell strain CEM cells in a binding buffer (containing HEPES and BSA), the test compound and ^125I-SDF-1 (NEN) were added and the mixture was incubated at 4° C. for 60 minutes. […] An amount of the radioactivity bound to the CEM cells was measured using Top Count (Packard) and inhibition (%) of the test compound was calculated according to the following equation: Inhibition=(Et−Ea)/(Et−Ec)×100
Et: amount of radioactivity when the test compound is not added,
Ec: amount of radioactivity when non-radioactive SDF-1 (Pepro Tech) is added in an amount of 1000 times as much as ^125I-SDF-1 as a test compound, and
Ea: amount of radioactivity when the test compound is added.

T1 sequence (P61073 whole entry): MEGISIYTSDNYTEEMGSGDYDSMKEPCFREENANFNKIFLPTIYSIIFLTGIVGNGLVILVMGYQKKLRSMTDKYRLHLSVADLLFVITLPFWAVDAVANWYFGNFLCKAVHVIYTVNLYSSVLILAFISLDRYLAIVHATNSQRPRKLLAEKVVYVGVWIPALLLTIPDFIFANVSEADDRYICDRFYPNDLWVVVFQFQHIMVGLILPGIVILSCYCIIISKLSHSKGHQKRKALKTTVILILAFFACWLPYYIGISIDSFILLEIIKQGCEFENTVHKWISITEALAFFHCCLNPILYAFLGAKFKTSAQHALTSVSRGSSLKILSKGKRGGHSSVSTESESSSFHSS

- IC50: 1.6 nM
SMILES: NCCC[C@@H]1[C@@H](Nc2nccc(N3CCCCCC3)n2)CCN1C1CCCCC1 [compound 10-2, N-[(2R,3S)-2-(3-aminopropyl)-1-cyclohexyl-3-pyrrolidinyl]-4-(1-azepanyl)-2-pyrimidinamine]
